This is an account of results in patent US6403576B1, “Antifungal and antiparasitic compounds” (priority 1998, dated 2002).

Converted amounts (≈) assume the structure as drawn. Like-named read-outs stand apart in the source and are kept apart here. Where only a bound is given, the exact number is not on record here.

The conditions of data set [1]: cited from earlier work.
A further data set deals with J-774 A.1 macrophages. The note with it: 10 uM; not from mevalonate; cited from earlier work.
For data set [2] the following is noted: 60 mg/day for 3 months; cited from earlier work.
Another data set concerns Leishmania. The data set can be described thus: Mevalonate as nutritional supplement of in vitro cultures. To be noted: mevalonate-fed cultures. It counts as cell-based. How it is done: To investigate this, we used ^14C-mevalonic acid to determine rate of incorporation by Leishmania (1.0 ng/hr/108 parasites at 25° C, using the respirometric assay. We also looked at mevalonic acid catabolism and found mevalonate is sparingly metabolized to CO2 (less than 1/25 the rate of aspartic acid metabolism, a most rapidly catabolized amino acid, Jackson, et al., 1989, Am J Trop Med Hyg 41, 318-330) even when the promastigotes are maintained under starvation condition for 30 minutes. When mevalonate was added as a nutritional supplement the parasites grew profusely but less rapidly than parallel unsupplemented control cultures. […] Given these preliminary observations: it appears Leishmania (a) incorporate mevalonic acid readily from their environment; (b) catabolism is spared even under starvation conditions; and (c) mevalonic acid can act as a nutritional supplement in vitro.

Data set [3] relates to Trichomonas vaginalis strain C1-NIH (ATCC #30001). The data set can be described thus: Trichomonad MIC assay, 96-well, 48 h. Type of data set: cell-based. Here is the method:
(§1) Trichomonad In Vitro and in Vivo Drug Screening Methods.(a) In Vitro: Several strains of T. vaginalis are maintained, covering the spectrum of metronidazole resistance: CDC85 (highly resistant); RU384, RU383, IR78 (moderately resistant); NYH286, RU284, RU393, C1-NIH (sensitive). These strains are routinely cultivated in a non-defined medium incorporating tryptose, yeast extract, maltose and supplemented with 10% horse serum.
(§2) In in vitro drug studies, plant extracts are tested using a 96-well plate assay as described by Meingassner et al., (1978, Antimicrob Agents Chemother 13, 1-3). This method uses only 200 ul of medium/well and thus uses very little plant extract. Results (in triplicate) are presented as “Minimal Inhibitory Concentration” (MIC) the lowest concentration completely blocking growth (Meingassner et al., 1978, supra). This method is also useful in comparing susceptibility of various strains (Meingassner et al., 1978, supra; Yarlett et al., 1987, Mol Biochem Parasitol 24, 255-261). […] Since vaginal O2 tensions are 1/20th to ¼th of atmospheric (Wagner et al., 1978, Fertil Steril 30, 50-53), it is more physiological to do drug sensitivity testing under conditions approaching this.
(§3) The trichomonad screen consists of two human pathogenic Trichomonas vaginalis strains and a livestock parasite Tritrichomonas foetus. The T. vaginalis isolates include a metronidazole sensitive isolate (C1-NIH: ATCC 30001) and a strain highly resistant to metronidazole (CDC-085: ATCC 50143). […] Table 4 details data from the initial group of 19 primary extracts. […] The results to Dec. 31, 1997 appear in Table 5.

The subject of data set [4] is Tritrichomonas foetus KV-1. Put plainly: Trichomonad MIC assay, 96-well, 48 h. Type of data set: cell-based. How it is done:
as §1, §2, §3

Data set [5] deals with Trichomonas vaginalis CDC-085 (ATCC#50143). Put plainly: Trichomonad MIC assay, 96-well, 48 h. Type of data set: cell-based. How it is done:
as §1, §2, §3

In data set [6] the test system is Leishmania major promastigotes. To be noted: cited from earlier work.
For data set [7] the following is noted: rats; cited from earlier work.
For data set [8] the following is noted: in vivo; cited from earlier work.

For `CC(=O)N1CCN(c2ccc(OCC3COC(Cn4ccnc4)(c4ccc(Cl)cc4Cl)O3)cc2)CC1` (stereo not drawn) [ketoconazole], the figures for the “decreased plasma cholesterol from pretreatment baseline” value in data set [1] (200 mg/day) and in data set [1] (1200 mg/day) were 15% and 27%, respectively.

For the molecule `CC(C)=CCC/C(C)=C/C=C/C(C)=C/C=C/C(C)=C/C=C/C=C(C)/C=C/C=C(C)/C=C/C=C(\C)CCC=C(C)C` [lycopene], the “cholesterol synthesis inhibited from acetate” value in the data set with J-774 A.1 macrophages was 73%. For the same molecule, the “decrease in plasma LDL cholesterol” value in data set [2] is listed as 14%.

Regarding `C[C@@](O)(CCO)CC(=O)O` [mevalonic acid], the “logarithmic phase growth longer than unsupplemented cultures” value in the data set on Leishmania came out at 2 fold. Besides, the “duration of logarithmic phase growth” value in the data set with Leishmania (unsupplemented ended at 4-5 days) is reported as above 10 days.

As to `Cc1ncc([N+](=O)[O-])n1CCO` [Metronidazole], the MIC (commonly the smallest concentration in the dilution series that meets the test's criterion for growth inhibition) in data set [3] (ATCC30001, Table 4, 48 hrs, read-out: MIC C1-HIH 48 hrs) came to 3 µg/mL (≈ 17.5 µM); in data set [3] (ATCC30001, Table 5, new plant extracts, read-out: MIC C1-NIH), 3 µg/mL (≈ 17.5 µM); in data set [4] (Table 4, 48 hrs, read-out: MIC KV-1 48 hrs), 4 µg/mL (≈ 23.4 µM); in [4] (Table 5, new plant extracts, read-out: MIC KV1) it was 3 µg/mL (≈ 17.5 µM); in data set [5] (ATCC50143, Table 4, 48 hrs, metronidazole-resistant strain, read-out: MIC CDC-085 48 hrs), 400 µg/mL (≈ 2340 µM); in data set [5] (ATCC50143, Table 5, new plant extracts, read-out: MIC CDC-085), 400 µg/mL (≈ 2340 µM).

In the case of `Nc1ccc(S(=O)(=O)c2ccc(N)cc2)cc1` [Dapsone, 4,4′-diaminodiphenyl sulfone], the “reversibility of inhibition by p-aminobenzoate (PABA) folate or thymidine” value in [6] was “not reversible”.

For `CC/C(=C(/c1ccc(OCCN(C)C)cc1)c1cccc(O)c1)c1ccccc1` [Droloxifene], in [7], the “reduced total serum cholesterol compared to controls” value was 65-70%.

For the molecule `Nc1nc(N)nc(Nc2ccc([As]3SCC(CO)S3)cc2)n1` (stereo not drawn) [Melarsoprol], in [8], the “incidence of cerebral episodes” value was 3-5%.
